Laboratory results reported in article PMC13198257, “An aerosolized dual-action autotaxin inhibitor-PPARγ agonist for the treatment of pulmonary fibrosis” (Cell Reports Medicine, 2026).

Experiments:
Autotaxin = molecular target: T1, Autotaxin (Homo sapiens, UniProt Q13822); test: HDX-MS of Autotaxin with and without EL244; format: binding
T1 construct: purchased Sino Biological 11308-H07H
Method: All HDX experiments were performed using a dual head parallel Trajan LEAP automation system (Carrboro, NC, USA).[153] Briefly, 5μL of reconstituted Autotaxin (1.25mg/mL) with and without EL244, was diluted into 100μL of labeling buffer (10mM PBS, 150mM sodium chloride, pD = 7.4 in D2O). pD was determined using pH measurements with a glass electrode and corrected for the isotopic effect.[154] Samples were labeled in quadruplicate for each labeling time (30s, 300s and 3000s) at 25°C. For experiments with bounded Autotaxin, both the protein stock and labeling buffer contained 50μM of the ligand to ensure >95% bound protein during labeling.[155] Afterward, 100 μL of labeled samples were quenched by mixing with equal amounts of precooled quench buffer (100mM glycine, 3M urea, 0.5M TCEP, pH 2.3 in water) at 1°C and held at that temperature for 120s to improve disulfide bond reduction. Non-deuterated controls and initial peptide map samples were prepared identically but using 10mM PBS, 150mM sodium chloride, pH = 7.4 in water as labeling buffer. […] Peptide masses were measured using a Waters SELECT SERIES cyclic IMS QTOF system using positive mode ionization and single pass ion mobility. All HDX experiments were measured using HDMS mode while initial peptide maps used HDMSE with a collision energy ramp of 20-45v.[156] […]

LPA levels = LPA levels in BALF and plasma of BLM mice after inhaled EL244 (MS/MS); format: in vivo
Method: Plasma (50μL), BALF (300 μL) or homogenized lung tissue (10–50 mg) were mixed with ice-cold PBS spiked with the internal standard mixture (LPA-d9, Cayman) in a glass tube (total final volume 1mL). 2 mL of ice-cold chloroform and 1 mL of methanol was added in each sample, following by vortexing for 1 min and then centrifugation at 4°C for 5 min at 4000 g. The lower transparent organic phase (chloroform phase-contains the neutral lipids) was collected in a glass tube. The remaining aqueous phase (upper phase) was left on ice for 10 min and acidified (pH 3–4) with Formic Acid 10% in water. Then 1.5 mL chloroform was added followed by thorough mixing for 1 min and centrifugation at 4°C for 5 min at 2000 g. The lower organic phase was collected and neutralized to pH 6–7. The neutralized organic phase from the acid extraction were evaporated to dryness. After evaporation we redissolve in water/methanol (1:9) with 0.1% formic acid and run in the mass spec. All MS quantitation lipid standards were purchased from Cayman unless otherwise mentioned. All LPA species analyzed in this study were quantified using the multiple reaction monitoring (MRM) scanning method on an Waters-QQQ mass spectrometer. All data were acquired and analyzed using the Waters data analysis software. The LC separation was achieved using a Gemini 5U C18 column (Phenomenex, 5 μm, 50 × 4.6 mm) coupled to a Gemini guard column (Phenomenex, 4 × 3 mm). The LC solvents were as follows: buffer A, 85% CAN, 5% MeOH +0.1% formic acid +10% 10 mM ammonium formate buffer pH5; buffer B, 95:5 (v/v) ACN/MeOH +0.1% formic acid. A typical LC-run was 35 min, with the following solvent run sequence post injection: 0.35 mL/min 5% B for 5 min, linear gradient of B from 0 to 95% over 25 min, and re-equilibration with 0.5 mL/min of 5% B for 5 min. […] All the endogenous lipid species were quantified by measuring the area under the curve in comparison to the respective internal standard, and then normalized to the total protein content of the […] tissue. The following table presents the MRM used for LPA quantification.

human PCLS = test: Human PCLS with pro-fibrotic cocktail; format: cell-based; conditions: 25 and 50 μΜ
Method: hPCLS were prepared from tumour-free lung tissue obtained during surgical resection from a patient undergoing surgery for pulmonary adenocarcinoma (Subject ID: LB26-0020). The biopsy was provided by the Biobanque CRB-Tumorothèque de Nice, Biobanque CHU de Nice (BB-0033-00025; approved protocol # CSE 2022-EV34), collected after written informed consent, in accordance with the Declaration of Helsinki and applicable French regulations for human biological materials.
The lung biopsy was rinsed thoroughly with Hank’s balanced salt solution (HBSS, Sigma-Aldrich) supplemented with antibiotics. The tissue was then infused with a 2.5% low-melting agarose solution prepared in DMEM/F-10 containing antibiotics, maintained at 40°C, and rapidly cooled to solidify the agarose. 8 mm tissue punches were then excised and sectioned into 300 μm-thick slices using the Compresstome VF-300-0Z (Precisionary Instruments). Each hPCLS was transferred into an individual well of a 24-well plate containing 500 μL of culture medium supplemented with 1× antibiotic–antimycotic solution (penicillin, streptomycin, amphotericin B), 50 μg/mL gentamicin, 1× insulin-transferrin-selenium (ITS) supplement, and 0.1% FBS. Slices were incubated at 37°C in a humidified atmosphere with 5% CO2. The culture medium was replaced after several hours.
Fibrosis was induced by a pro-fibrotic cocktail (PFC; 5 ng/mL TGF-β1, […] PDGF-AB, 10 ng/mL TNF-a and 5 μM LPA 18:1), following a well-established protocol.[73] Individual PCLS were first incubated with the PFC for 48 h. After this initial exposure, the medium was renewed and PCLS were treated for an additional 72 h with either PFC alone or PFC supplemented with EL244 (25 μM or 50 μM). Untreated PCLS served as controls.

O=C1NC(=O)C(Cc2ccc(OCCC3CCN(C(=O)OCc4cc(Cl)cc(Cl)c4)CC3)cc2)S1 (centres unmarked) [EL244, 3,5-dichlorobenzyl 4-(2-(4-((2,4-dioxothiazolidin-5-yl)methyl)phenoxy)ethyl)piperidine-1-carboxylate]
Binding site on ATX (Autotaxin; HDX-MS, protected region 214–289 mapped on 2XR9): binds to the hydrophobic pocket and the allosteric tunnel of ATX
ATX inhibitor type (Autotaxin; HDX/MS and MD analysis): type IV ATX inhibitor
LPA species in BALF (LPA levels): All LPA species, except for 18:0, were found to be reduced in the BALF
Plasma LPA levels (LPA levels): no modulation of plasma LPA levels was detected
Total LPA content in BALFs (LPA levels): found reduced
Col1a1 and Acta2 mRNA expression (human PCLS): downregulation
Development of fibrosis (histology) (human PCLS): prevented and/or attenuated the development of fibrosis
PPARγ target gene expression (human PCLS): upregulated the expression of PPARγ target genes
